Source: US12201679B2, “Epitope-targeted peptide immunostimulants” (priority 2019, dated 2025)
Read-outs that look alike come from different tables or passages of the source. Bridge positions count the residues as written; N and C are the ends. Square brackets hold non-standard residues; d marks the D form. Triazole bridges read from a SMILES are 1,4-linked. Peptide text beside a SMILES is read from it. * marks the point of attachment. Biotin = O=C1N[C@H]2[C@H](CS[C@H]2CCCCC(=O)*)N1; PEG10 = NCCOCCOCCOCCOCCOCCOCCOCCOCCOCCOCCC(=O)O; Lys(N3) = [N-]=[N+]=NCCCC[C@H](N)C(=O)O; PEG5 = NCCOCCOCCOCCOCCOCCC(=O)O; Pra = C#CC[C@H](N)C(=O)O

Assays:
[1] = Isocratic point, elution from C18 prep-scale column; format: physicochemical; settings: elution from C18 column
Protocol: PCC compounds were purified on a Waters Autopurification system, which isolated compounds based on MS peaks corresponding to protonated [M+1H]^+ and [M+2H]^2+, and/or sodium adducts [M+Na]^+ and [M+2Na]^2+. The isocratic points of PCCs were determined based on the elution of the compound from a C18 prep-scale column. Synthetic epitopes were either purified on the Waters Autopurification System, or by semi-preparative HPLC and then using matrix-assisted laser desorption/ionization mass spectroscopy to identify fractions with the desired m/z ratio. The resulting peptides were lyophilized, the yield determined by mass difference or UV-visible absorbance, and resuspended at a concentration of up to 10 mM peptide in DMSO. Peptides were stored at −80° C. before thawing for each use.

[2] = target: full-length recombinant MrkA protein (Klebsiella pneumoniae, UniProt P12267); format: binding; settings: for binding to full-length MrkA compared to cy(LLFFF): sandwich ELISA, alanine scan and analogues; for affinities to MrkA: ELISA, stated as 'likely'
Text: HPraGly is present before X1 in each peptide and Az4 follows X5 in each peptide.

Row | Compound | Isocratic point (%) [1] [%] | Relative affinity (ratio of ELISA signal versus cy(LLFFF)) ([2]; ELISA 2, [MrkA] 25 nM) | binding to full-length MrkA compared to cy(LLFFF) [2] | further results
1 | NC(=O)[C@@H]1CCCCn2cc(nn2)C[C@H](NC(=O)CCOCCOCCOCCOCCOCCOCCOCCOCCOCCOCCNC(=O)CCCC[C@@H]2SC[C@@H]3NC(=O)N[C@@H]32)C(=O)N[C@@H](Cc2ccccc2)C(=O)N[C@@H](Cc2ccccc2)C(=O)N[C@@H](Cc2ccccc2)C(=O)N1 [compound 23] ({Biotin-PEG10}-[Pra]FFF[Lys(N3)]-NH2; triazole 1-5) | 60.27 |  |  | Relative affinity (ratio of ELISA signal versus cy(LLFFF)) ([2]; ELISA 6, [MrkA] 25 nM): 0.14
2 | CC(C)C[C@@H]1NC(=O)[C@H](CC(C)C)NC(=O)[C@@H](NC(=O)CCOCCOCCOCCOCCOCCOCCOCCOCCOCCOCCNC(=O)CCCC[C@@H]2SC[C@@H]3NC(=O)N[C@@H]32)Cc2cn(nn2)CCCC[C@@H](C(N)=O)NC(=O)[C@H](Cc2ccccc2)NC(=O)[C@H](Cc2ccccc2)NC(=O)[C@H](C)NC1=O [compound 4] ({Biotin-PEG10}-[Pra]LLAFF[Lys(N3)]-NH2; triazole 1-7) | 70.97 | 0.59 |  | 
3 | CC(C)C[C@@H]1NC(=O)[C@@H](NC(=O)CCOCCOCCOCCOCCOCCOCCOCCOCCOCCOCCNC(=O)CCCC[C@@H]2SC[C@@H]3NC(=O)N[C@@H]32)Cc2cn(nn2)CCCC[C@@H](C(N)=O)NC(=O)[C@H](Cc2ccccc2)NC(=O)[C@H](C)NC(=O)[C@H](Cc2ccccc2)NC(=O)[C@H](CC(C)C)NC1=O [compound 5] ({Biotin-PEG10}-[Pra]LLFAF[Lys(N3)]-NH2; triazole 1-7) | 66.00 | 0.10 |  | 
4 | cy(LLAFF) (cyclic) |  |  | Modestly lower binding | 
5 | CC(C)C[C@@H]1NC(=O)[C@@H](NC(=O)CCOCCOCCOCCOCCOCCOCCOCCOCCOCCOCCNC(=O)CCCC[C@@H]2SC[C@@H]3NC(=O)N[C@@H]32)Cc2cn(nn2)CCCC[C@@H](C(N)=O)NC(=O)[C@H](Cc2ccccc2)NC(=O)[C@H](Cc2ccccc2)NC(=O)[C@H](Cc2ccccc2)NC(=O)[C@H](CC(C)C)NC1=O [Ref. compound] ({Biotin-PEG10}-[Pra]LLFFF[Lys(N3)]-NH2; triazole 1-7) |  | 1.00 |  | Isocratic point (%) ([1]; N-terminal tag Bio-Peg10-peg10-): 74.53%; Isocratic point (%) ([1]; N-terminal tag Bio-peg5-): 78.85%; Isocratic point (%) ([1]; N-terminal tag Bio-peg10-): 75.88%; Relative affinity (ratio of ELISA signal versus cy(LLFFF)) ([2]; ELISA 1, [MrkA] for ELISA N/A): 1.00; Relative affinity (ratio of ELISA signal versus cy(LLFFF)) ([2]; ELISA 3, [MrkA] 50 nM): 1.00; Relative affinity (ratio of ELISA signal versus cy(LLFFF)) ([2]; ELISA 4, [MrkA] 100 nM): 1.00; Relative affinity (ratio of ELISA signal versus cy(LLFFF)) ([2]; ELISA 5, [MrkA] 25 nM): 1.00; Relative affinity (ratio of ELISA signal versus cy(LLFFF)) ([2]; ELISA 6, [MrkA] 25 nM): 1.00
6 | CC(C)C[C@@H]1NC(=O)[C@H](CCCNC(=N)N)NC(=O)[C@H](Cc2c[nH]cn2)NC(=O)[C@H](C(C)C)NC(=O)CNC(=O)[C@@H](NC(=O)CCOCCOCCOCCOCCOCCNC(=O)CCCC[C@@H]2SC[C@@H]3NC(=O)N[C@@H]32)Cc2cn(nn2)CCCC[C@@H](C(N)=O)NC1=O [cy(GVHRL)] ({Biotin-PEG5}-[Pra]GVHRL[Lys(N3)]-NH2; triazole 1-7) |  |  | lower affinities | affinities to MrkA [2]: ~1 µM
7 | CC(C)C[C@@H]1NC(=O)[C@@H](NC(=O)CCOCCOCCOCCOCCOCCOCCOCCOCCOCCOCCNC(=O)CCCC[C@@H]2SC[C@@H]3NC(=O)N[C@@H]32)CCCCn2cc(nn2)C[C@@H](C(N)=O)NC(=O)[C@H](C)NC(=O)[C@H](Cc2ccccc2)NC(=O)[C@H](Cc2ccccc2)NC(=O)[C@H](CC(C)C)NC1=O [compound 6] ({Biotin-PEG10}-[Lys(N3)]LLFFA[Pra]-NH2; triazole 1-7) | 64.43 | 0.04 |  | 
8 | CC(C)C[C@@H]1NC(=O)[C@@H](NC(=O)CCOCCOCCOCCOCCOCCOCCOCCOCCOCCOCCNC(=O)CCCC[C@@H]2SC[C@@H]3NC(=O)N[C@@H]32)Cc2cn(nn2)CCCC[C@@H](C(N)=O)NC(=O)[C@H](Cc2ccccc2)NC(=O)[C@H](Cc2ccccc2)NC(=O)[C@H](Cc2ccccc2)NC(=O)[C@H](C)NC1=O [compound 3] ({Biotin-PEG10}-[Pra]LAFFF[Lys(N3)]-NH2; triazole 1-7) | 66.00 | 0.26 |  | 
9 | CC(C)C[C@@H]1NC(=O)[C@@H](NC(=O)CCOCCOCCOCCOCCOCCOCCOCCOCCOCCOCCNC(=O)CCCC[C@@H]2SC[C@@H]3NC(=O)N[C@@H]32)Cc2cn(nn2)CCCC[C@@H](C(N)=O)NC(=O)[C@H](Cc2ccccc2)NC(=O)[C@H](CC(C)C)NC1=O [compound 22] ({Biotin-PEG10}-[Pra]LLF[Lys(N3)]-NH2; triazole 1-5) | 56.45 |  |  | Relative affinity (ratio of ELISA signal versus cy(LLFFF)) ([2]; ELISA 6, [MrkA] 25 nM): 0.09
10 | CC(C)C[C@@H]1NC(=O)[C@@H](NC(=O)CCOCCOCCOCCOCCOCCOCCOCCOCCOCCOCCNC(=O)[C@H](CCCNC(=N)N)NC(=O)[C@H](CCCNC(=N)N)NC(=O)[C@H](CCCNC(=N)N)NC(=O)[C@H](CCCNC(=N)N)NC(=O)[C@H](CCCNC(=N)N)NC(=O)[C@H](CCCNC(=N)N)NC(=O)[C@H](CCCNC(=N)N)NC(=O)[C@H](CCCNC(=N)N)NC(=O)[C@H](CCCNC(=N)N)NC(=O)CCOCCOCCOCCOCCOCCOCCOCCOCCOCCOCCNC(=O)CCCC[C@@H]2SC[C@@H]3NC(=O)N[C@@H]32)Cc2cn(nn2)CCCC[C@@H](C(N)=O)NC(=O)[C@H](Cc2ccccc2)NC(=O)[C@H](Cc2ccccc2)NC(=O)[C@H](Cc2ccccc2)NC(=O)[C@H](CC(C)C)NC1=O [compound 18] | 37.03 |  |  | Relative affinity (ratio of ELISA signal versus cy(LLFFF)) ([2]; ELISA 5, [MrkA] 25 nM): 0.58
11 | CC(C)C[C@@H]1NC(=O)[C@@H](NC(=O)CCOCCOCCOCCOCCOCCOCCOCCOCCOCCOCCNC(=O)[C@H](CCCNC(=N)N)NC(=O)[C@H](CCCNC(=N)N)NC(=O)[C@H](CCCNC(=N)N)NC(=O)[C@H](CCCNC(=N)N)NC(=O)[C@H](CCCNC(=N)N)NC(=O)[C@H](CCCNC(=N)N)NC(=O)CCOCCOCCOCCOCCOCCOCCOCCOCCOCCOCCNC(=O)CCCC[C@@H]2SC[C@@H]3NC(=O)N[C@@H]32)Cc2cn(nn2)CCCC[C@@H](C(N)=O)NC(=O)[C@H](Cc2ccccc2)NC(=O)[C@H](Cc2ccccc2)NC(=O)[C@H](Cc2ccccc2)NC(=O)[C@H](CC(C)C)NC1=O [compound 17] ({Biotin-PEG10}-RRRRRR[PEG10][Pra]LLFFF[Lys(N3)]-NH2; triazole 8-14) | 39.82 |  |  | Relative affinity (ratio of ELISA signal versus cy(LLFFF)) ([2]; ELISA 5, [MrkA] 25 nM): 1.22
12 | cy(LAFFF) (cyclic) |  |  | Modestly lower binding | 
13 | CC(C)C[C@@H]1NC(=O)[C@H](Cc2c[nH]cn2)NC(=O)[C@H](CCCNC(=N)N)NC(=O)[C@H](Cc2ccc(O)cc2)NC(=O)[C@@H](NC(=O)CCOCCOCCOCCOCCOCCNC(=O)CCCC[C@@H]2SC[C@@H]3NC(=O)N[C@@H]32)Cc2cn(nn2)CCCC[C@@H](C(N)=O)NC(=O)CNC1=O [cy(YRHLG)] ({Biotin-PEG5}-[Pra]YRHLG[Lys(N3)]-NH2; triazole 1-7) |  |  | lower affinities | affinities to MrkA [2]: ~1 µM
14 | C[C@@H](O)[C@@H]1NC(=O)[C@@H](NC(=O)CCOCCOCCOCCOCCOCCNC(=O)CCCC[C@@H]2SC[C@@H]3NC(=O)N[C@@H]32)Cc2cn(nn2)CCCC[C@@H](C(N)=O)NC(=O)[C@H](Cc2ccccc2)NC(=O)[C@H](Cc2ccccc2)NC(=O)[C@H](Cc2ccccc2)NC(=O)[C@H]([C@@H](C)O)NC1=O [cy(TTFFF)] ({Biotin-PEG5}-[Pra]TTFFF[Lys(N3)]-NH2; triazole 1-7; N-terminus assumed) |  |  | lower affinities | affinities to MrkA [2]: ~1 µM
15 | cy(ALFFF) (cyclic) |  |  | Modestly lower binding | 
